Tests used:
thoracic aorta = assay: Vasoconstriction inhibitory action (Test Example 2); set-up: species or system Rats (Wistar); conditions: aorta constricted with phenylephrine (1 μM), test compound (1 μM)
Text: Rats (Wistar, 11-week old) were bleeded to death and laparotomized to take out the thoracic aorta. That aorta was cut into a ring of a length of about 3 mm in a conventional manner (Asano, T., et al., J. Pharmacol. Exp. Ther., 241, pp. 1033-1040 (1987)) and hung in 10-ml organ bath filled with Krebs-Hensright nutrient solution bubbled with a mixed gas of 95% O2 and 5% CO2. One end of the blood vessel was connected to an isometric transducer (FD Pickup TB-912T, Nihon Kohden) and applied with 2.5 g of resting tension, and constriction and relaxation reactions of the aorta were recorded.
The aorta was constricted with phenylephrine (1 μM, Sigma) and then added with a test compound (1 μM), and the vasoconstriction inhibitory action thereof was observed. The vasoconstriction inhibitory actions of the test compounds were calculated as relaxation ratios, which were based on the vasoconstriction with phenylephrine observed immediately before the addition of the test compounds taken as 100%.

[1] = system: respiratory tract constriction induced by ovalbumin; assay: Action of suppressing respiratory tract constriction induced by antigen stimulation (Test Example 3); type: in vivo, Hartley guinea pigs; conditions: for respiratory tract constriction suppression action by inhalation: 0.1% ovalbumin inhalation, test compound by nebulizer inhalation over 5 minutes; for respiratory tract constriction suppressing action: ovalbumin-immunized guinea pigs, test medicament from cannula in hind leg vein, airway resistance for 15 minutes
intraocular pressure [2] = assay: Intraocular pressure reducing action (Test Example 4); type: in vivo, Japanese white rabbit; conditions: 50 μl of aqueous solution dropped to the left eye
Method: A Japanese white rabbit having a body weight of about 2 kg was placed in a positioner and naturalized for one week before the experiment. An ophthalmologic local anesthesant (Benoxil) was administered to the left eye, and then intraocular pressure was measured by using a tonometer (Classic 30, Solan). The initial value of the intraocular pressure was measured, then 50 μl of an aqueous solution of a test compound was dropped to the left eye at various concentrations, and the intraocular pressure was measured with passage of time.

[3] = system: cerebral hippocampal neurons; assay: Neurite outgrowth action (Test Example 5); type: cell-based, Sprague-Dawley rats; conditions: neurite length 24 hours after addition
Method: From 18 day-old Sprague-Dawley rats, cerebral hippocampal neurons were prepared according to the method of Neuman et al. (Neuman, H. R. et al., J. Neurosci., 22, pp. 854-862, 2002). The prepared neurons were cultured for 24 hours according to the method of Tanaka et al. (Tanaka, H. et al., J. Cell Biol., 158 (2), pp. 321-329, 2002), then the medium was exchanged with fresh medium, and test medicaments of various concentrations or equivalent amounts of vehicle were added. Twenty-four hours after the addition of the medicaments, neurite length of each neuron was measured for the medicament-added group and the no-addition group, and compared. The neurite length was evaluated according to the method of Neuman et al. (Neuman, H. R. et al., J. Neurosci., 22, pp. 854-862, 2002).

[4] = system: OVA-induced respiratory tract inflammation; assay: Chronic respiratory tract inflammation suppressing action (Test Example 7); type: in vivo, BALB/c female mice; conditions: administration by infusion pump once a day for 5 days
Method: According to Henderson, W. R., et al., Am. J. Respir. Cric. Care Med., 165(1), 108-116 (2002), suppressing action on bronchial inflammation was confirmed. BALB/c female mice (7-week old) were used for the test, which were grouped into a negative control group, a positive control group, and a drug administration group. The mice of each group were intraperitoneally administered with ovalbumin (OVA, 100 ng, Sigma) and 1 mg of aluminum hydroxide for initial immunization, and after 2 weeks, they are subcutaneously administered with 10 μg of OVA as additional immunization. In the following experiments, test compounds are used as a solution obtained by dissolving each compound in water containing 0.5% carboxymethylcellulose. […]
Twenty four hours after the final OVA inhalation or inhalation of physiological saline, pulmonary cavities of the test animals were washed with physiological saline containing 1% BSA, and the total infiltrated white blood cells (WBC) were counted. […]
Twenty four hours after the final drug administration, pulmonary cavities of the test animals were washed with physiological saline, and the total infiltrated white blood cells (WBC) were counted.

[5] = system: lipopolysaccharide-induced inflammation; assay: Acute respiratory tract inflammation suppressing action (Test Example 8); type: in vivo, BALB/c female mice; conditions: LPS inhalation; for acute respiratory tract inflammation, total infiltrated leucocyte number (WBC): test compound by infusion pump; for acute respiratory tract inflammation, total infiltrated leucocyte (WBC) number: test compound by nebulizer inhalation over 10 minutes
Text: According to Gonzales de Moraes, V L., et al., Br. J. Pharmacol., 123, pp. 631-6, 1998, suppressing action on pulmonary inflammation was studied. BALB/c female mice (7-week old) were used for the test, as the compound administration group and positive control group, each consisting of 7 mice, as well as the negative control group consisting of 5 mice. For induction of inflammation, a 0.03% physiological saline solution of a lipopolysaccharide (LPS, a mixture derived from Escherichia coli O55 and B5 strains, Sigma) was used. A test compound was dissolved in physiological saline to prepare solutions of various concentrations. […] Then, 1 minute after the completion of the inhalation of the lipopolysaccharide solution, the animals were administered with a solution of test compound at various concentrations over 10 minutes by inhalation using the aforementioned nebulizer. The mice of the positive control group were administered with the same volume of physiological saline instead of the test compound solution over 10 minutes by inhalation. The mice of the negative control group were inhaled with physiological saline instead of the lipopolysaccharide solution by inhalation, and then administered with the same volume of physiological saline instead of the test compound solution by inhalation. Three hours after the administration of the test compound, pulmonary cavities of the test animals were washed with physiological saline, and the total infiltrated leucocyte (WBC) number was counted.
Further, after starting the administration of the test compound solution by using an infusion pump, the mice of the drug administration group was inhaled with the lipopolysaccharide solution over 10 minutes by the aforementioned method to induce inflammation. At the same time, the mice of the positive control group were administered with the same volume of physiological saline instead of the test compound, and inflammation was induced by the aforementioned method. For the mice of the negative control group, the same procedure was performed by using physiological saline instead of the test compound, and physiological saline instead of the lipopolysaccharide solution. Three hours after the induction of respiratory tract inflammation, pulmonary cavities of the test animals were washed with physiological saline, and the total infiltrated leucocyte number (WBC) was counted.

trachea = assay: Tracheal relaxation action (Test Example 11); set-up: species or system Hartley guinea pigs; conditions: constricted with 10 μM histamine
Method: Hartley guinea pigs (male, 300 to 600 g) were bled to death, and each trachea was extracted. The trachea was first cut on the pair of smooth muscles side along the direction parallel to the smooth muscles, then cut along the cartilage to prepare a sample in the form of a strip having a width of about 2 to 3 mm. After removing […], the sample was suspended with a static load of […] in a Magnus bath containing Krebs-Henseleit solution of 37° C. bubbled with a mixed gas of 95% O2 and 5% CO2. Generated tension was recorded on a recorder via an isometric transducer (FD Pickup TB-612T, Nihon Kohden).
After suspending the sample, and waiting for 1 hour or more until a stable ground line was obtainable, a constriction substance was administered, and then the experiment was started after reproducible constriction was obtainable. During this procedure, the solution in the Magnus bath was changed every about 30 minutes. The sample was constricted with 10 μM histamine, and after the time point that the generated tension was stabilized, a test drug was cumulatively administered at various concentrations to examine change in tension of the sample.

[6] = system: histamine-induced constriction of respiratory tract; assay: Action of suppressing respiratory tract constriction induced by constriction elicitor (Test Example 12); type: in vivo, Hartley guinea pigs; conditions: 100 μl test compound solution sprayed onto the respiratory tract
intraocular pressure [7] = assay: Intraocular pressure reduction enhancing action, combination with jointly-used drug (Test Example 13, rabbits); type: in vivo; conditions: jointly-used drug isopropylunoprostone, dorzolamide hydrochloride, bunazosin hydrochloride or timolol maleate
Text: For evaluation of intraocular pressure reduction enhancing action of a combination of the compound of the present invention and a jointly-used drug other than latanoprost, rabbits were used as experimental animals, and for evaluation of intraocular pressure reduction enhancing action of a combination of the compound of the present invention and latanoprost, monkeys were used. Naturalization of the rabbits, method for measuring intraocular pressure, and preparation of liquid for eye drop were according to those of Test Example 4. The rabbits were divided into a control group, instillation group for test compound solution alone (single active ingredient preparation group 1), instillation group for jointly-used drug alone (single active ingredient preparation group 2), and instillation group for jointly-used drug and test compound solution (combination use group). After initial values of intraocular pressure of the rabbits in each group were measured, 50 μL of a test compound solution in physiological saline at various concentrations was dropped to the eyes of the rabbits of the single active ingredient preparation group 1 and the combination use group, and physiological saline of the same volume was dropped to the eyes of the rabbits of the control group and the single active ingredient preparation group 2. […] Then, the intraocular pressure was measured in time course for each group. […]

With `FC1CNCCC1N1CCc2cncc3cccc1c23` (stereo not shown) the vasoconstriction inhibitory action (thoracic aorta) was “had vasoconstriction inhibitory action”, the “respiratory tract constriction suppression action by inhalation” value [1] was “significantly improved the constriction of respiratory tract” and the “respiratory tract constriction suppressing action” value [1] was “significant respiratory tract constriction suppressing action”. For the same compound, the “intraocular pressure reducing action” value (intraocular pressure [2]) was “significant intraocular pressure reducing action”, the neurite outgrowth [3] was “induced significant neurite outgrowth” and the “chronic respiratory tract inflammation, total infiltrated white blood cells (WBC)” value [4] was “significantly improved the pathological conditions”. For the same compound, the “acute respiratory tract inflammation, total infiltrated leucocyte number (WBC)” value [5] was “significantly improved the pathological conditions”, the “acute respiratory tract inflammation, total infiltrated leucocyte (WBC) number” value [5] was “significantly improved the pathological conditions” and the “suppression of constriction of the trachea sample” value (trachea) was “significantly suppressed constriction of the trachea sample”. The “suppression of constriction of respiratory tract induced by histamine” value [6] was “significantly suppressed the constriction of respiratory tract” and the “intraocular pressure reducing action, combination use group versus single active ingredient preparation groups 1 and 2” value (intraocular pressure [7]) was “Enhancement of the intraocular pressure reducing action was also confirmed”.
`CN(CCO)C1CCC(N2CCc3cncc4cccc2c34)CC1` (stereo not shown) was tested, and the vasoconstriction inhibitory action (thoracic aorta) was “had vasoconstriction inhibitory action”, the “respiratory tract constriction suppression action by inhalation” value [1] was “significantly improved the constriction of respiratory tract” and the “respiratory tract constriction suppressing action” value [1] was “significant respiratory tract constriction suppressing action”. For the same compound, the “intraocular pressure reducing action” value (intraocular pressure [2]) was “significant intraocular pressure reducing action”, the neurite outgrowth [3] was “induced significant neurite outgrowth” and the “chronic respiratory tract inflammation, total infiltrated white blood cells (WBC)” value [4] was “significantly improved the pathological conditions”. For the same compound, the “acute respiratory tract inflammation, total infiltrated leucocyte number (WBC)” value [5] was “significantly improved the pathological conditions”, the “acute respiratory tract inflammation, total infiltrated leucocyte (WBC) number” value [5] was “significantly improved the pathological conditions” and the “suppression of constriction of the trachea sample” value (trachea) was “significantly suppressed constriction of the trachea sample”. For the same compound, the “suppression of constriction of respiratory tract induced by histamine” value [6] was “significantly suppressed the constriction of respiratory tract” and the “intraocular pressure reducing action, combination use group versus single active ingredient preparation groups 1 and 2” value (intraocular pressure [7]) was “Enhancement of the intraocular pressure reducing action was also confirmed”.

Source: patent publication US20060247266A1, “Nitrogen-containing tricyclic compounds” (Asahi Kasei Pharma Corporation, priority 2004, published 2006)
